The values that follow are results of earlier work, collected in US20260034192A1 (University of Saskatchewan, priority 2022, published 2026).

Square brackets hold non-standard residues; d marks the D form. Peptide text beside a SMILES is read from it. dPhe(4-NH2) = Nc1ccc(C[C@@H](N)C(=O)O)cc1; dPhe(4-Cl) = N[C@H](Cc1ccc(Cl)cc1)C(=O)O; Phe(4-NH2) = Nc1ccc(C[C@H](N)C(=O)O)cc1; d2Nal = N[C@H](Cc1ccc2ccccc2c1)C(=O)O; Lys(iPr) = CC(C)NCCCC[C@H](N)C(=O)O; d3Pal = N[C@H](Cc1cccnc1)C(=O)O

This data set deals with dominant follicle. Conditions: acyline-treated animals, multiple injections from just before ovulation; cited from earlier work.

Take `CC(=O)Nc1ccc(C[C@H](NC(=O)[C@H](CO)NC(=O)[C@@H](Cc2cccnc2)NC(=O)[C@@H](Cc2ccc(Cl)cc2)NC(=O)[C@@H](Cc2ccc3ccccc3c2)NC(C)=O)C(=O)N[C@H](Cc2ccc(NC(C)=O)cc2)C(=O)N[C@@H](CC(C)C)C(=O)N[C@@H](CCCCNC(C)C)C(=O)N2CCC[C@H]2C(=O)N[C@H](C)C(N)=O)cc1` [acyline, N-acetyl-3-(2-naphthyl)-D-alanyl-4-chloro-D-phenylalanyl-3-(3-pyridyl)-D-alanyl-L-seryl-4-acetamido-L-phenylalanyl-4-acetamido-D-phenylalanyl-L-leucyl-N6-isopropyl-L-lysyl-L-prolyl-D-alaninamide] (Ac-[d2Nal][dPhe(4-Cl)][d3Pal]S[Phe(4-NH2)](Ac)[dPhe(4-NH2)](Ac)L[Lys(iPr)]P[dA]-NH2): the “Maximum diameter of dominant follicle” value is 7.7 mm.
